From ChEMBL document CHEMBL3991601, “The target landscape of clinical kinase drugs” (Science, 2017)
Active and inactive are the calls of the source. Rule as the data show it: actives have a measured Kd and inactives only a lower limit.

Key:
[1] = target: T1, Ephrin type-B receptor 4 (Homo sapiens, UniProt P54760)
T1 sequence (P54760 whole entry): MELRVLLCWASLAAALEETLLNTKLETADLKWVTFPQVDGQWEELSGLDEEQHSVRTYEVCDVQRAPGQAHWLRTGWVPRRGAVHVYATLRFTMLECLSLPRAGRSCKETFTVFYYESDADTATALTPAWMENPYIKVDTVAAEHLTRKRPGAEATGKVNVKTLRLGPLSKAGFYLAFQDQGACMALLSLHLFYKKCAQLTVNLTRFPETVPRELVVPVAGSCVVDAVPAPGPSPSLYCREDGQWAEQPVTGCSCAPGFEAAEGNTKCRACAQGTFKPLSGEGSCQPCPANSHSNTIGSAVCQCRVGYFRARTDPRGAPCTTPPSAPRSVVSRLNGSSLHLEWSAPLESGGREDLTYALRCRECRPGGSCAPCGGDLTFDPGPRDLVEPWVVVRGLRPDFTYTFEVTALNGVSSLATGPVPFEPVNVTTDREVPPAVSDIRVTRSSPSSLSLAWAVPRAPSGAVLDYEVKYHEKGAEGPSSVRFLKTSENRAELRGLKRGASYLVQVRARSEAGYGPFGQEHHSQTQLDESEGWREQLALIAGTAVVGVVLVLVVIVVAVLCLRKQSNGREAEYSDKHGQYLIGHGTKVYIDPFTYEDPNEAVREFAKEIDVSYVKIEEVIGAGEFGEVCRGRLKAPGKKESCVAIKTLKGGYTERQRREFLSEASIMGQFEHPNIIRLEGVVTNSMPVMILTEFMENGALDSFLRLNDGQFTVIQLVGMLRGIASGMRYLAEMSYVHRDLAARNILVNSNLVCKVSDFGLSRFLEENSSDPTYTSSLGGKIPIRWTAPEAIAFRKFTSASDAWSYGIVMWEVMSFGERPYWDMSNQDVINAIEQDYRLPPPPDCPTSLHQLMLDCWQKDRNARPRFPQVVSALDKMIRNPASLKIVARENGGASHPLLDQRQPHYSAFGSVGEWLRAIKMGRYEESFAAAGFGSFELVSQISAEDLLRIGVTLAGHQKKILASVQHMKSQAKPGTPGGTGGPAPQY

[2] = target: T2, Cyclin-G-associated kinase (Homo sapiens, UniProt O14976)
T2 sequence (O14976 whole entry): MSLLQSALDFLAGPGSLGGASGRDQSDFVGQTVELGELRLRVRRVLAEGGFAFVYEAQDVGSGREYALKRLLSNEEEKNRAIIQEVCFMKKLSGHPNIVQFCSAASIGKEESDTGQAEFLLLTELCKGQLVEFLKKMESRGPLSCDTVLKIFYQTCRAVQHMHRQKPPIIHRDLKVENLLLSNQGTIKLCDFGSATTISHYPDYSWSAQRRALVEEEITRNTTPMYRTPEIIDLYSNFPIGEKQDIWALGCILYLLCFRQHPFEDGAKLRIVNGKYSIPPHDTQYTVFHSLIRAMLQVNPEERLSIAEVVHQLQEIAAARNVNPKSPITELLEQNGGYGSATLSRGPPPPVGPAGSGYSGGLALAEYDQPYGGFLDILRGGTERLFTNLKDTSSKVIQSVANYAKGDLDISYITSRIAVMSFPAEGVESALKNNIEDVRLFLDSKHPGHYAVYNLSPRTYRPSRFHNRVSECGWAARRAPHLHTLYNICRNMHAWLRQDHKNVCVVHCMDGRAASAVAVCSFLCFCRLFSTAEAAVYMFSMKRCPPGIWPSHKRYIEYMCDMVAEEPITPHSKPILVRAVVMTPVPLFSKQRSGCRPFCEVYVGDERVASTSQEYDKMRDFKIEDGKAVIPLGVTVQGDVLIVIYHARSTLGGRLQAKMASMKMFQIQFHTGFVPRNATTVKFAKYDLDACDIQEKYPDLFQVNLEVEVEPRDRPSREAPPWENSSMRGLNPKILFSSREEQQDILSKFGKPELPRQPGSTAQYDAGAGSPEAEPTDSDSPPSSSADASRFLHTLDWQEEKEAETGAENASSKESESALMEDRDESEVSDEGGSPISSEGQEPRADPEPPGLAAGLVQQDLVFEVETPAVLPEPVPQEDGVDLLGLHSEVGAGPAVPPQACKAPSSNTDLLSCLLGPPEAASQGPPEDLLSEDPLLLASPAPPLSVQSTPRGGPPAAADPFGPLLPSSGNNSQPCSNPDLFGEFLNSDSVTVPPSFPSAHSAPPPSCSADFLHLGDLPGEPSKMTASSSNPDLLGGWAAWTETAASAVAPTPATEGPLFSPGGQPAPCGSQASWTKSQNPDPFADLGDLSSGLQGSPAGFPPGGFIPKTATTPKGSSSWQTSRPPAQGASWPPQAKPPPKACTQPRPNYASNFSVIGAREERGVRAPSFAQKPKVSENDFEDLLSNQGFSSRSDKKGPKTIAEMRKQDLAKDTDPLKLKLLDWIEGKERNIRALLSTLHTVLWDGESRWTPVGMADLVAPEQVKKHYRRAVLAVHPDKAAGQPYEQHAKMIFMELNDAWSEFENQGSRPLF

[3] = target: 5'-AMP-activated protein kinase catalytic subunit alpha-1 (Homo sapiens, UniProt Q13131)
5'-AMP-activated protein kinase catalytic subunit alpha-1, sequence (Q13131 whole entry): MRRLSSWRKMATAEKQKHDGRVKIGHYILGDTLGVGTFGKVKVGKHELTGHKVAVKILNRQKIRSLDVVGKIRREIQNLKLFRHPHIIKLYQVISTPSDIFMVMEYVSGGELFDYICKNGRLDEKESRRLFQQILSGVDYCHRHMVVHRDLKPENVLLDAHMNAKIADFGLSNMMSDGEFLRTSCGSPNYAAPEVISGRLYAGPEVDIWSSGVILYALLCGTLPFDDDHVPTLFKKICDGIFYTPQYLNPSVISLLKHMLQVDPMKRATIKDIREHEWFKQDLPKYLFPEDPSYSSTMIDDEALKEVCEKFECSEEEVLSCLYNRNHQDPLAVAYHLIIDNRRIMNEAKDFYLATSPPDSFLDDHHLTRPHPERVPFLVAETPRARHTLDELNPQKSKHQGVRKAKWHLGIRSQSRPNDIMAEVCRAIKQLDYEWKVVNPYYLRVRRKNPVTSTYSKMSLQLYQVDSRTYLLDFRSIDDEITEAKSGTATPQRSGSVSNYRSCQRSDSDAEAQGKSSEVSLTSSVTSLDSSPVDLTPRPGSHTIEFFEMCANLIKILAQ

[4] = target: Protein kinase C alpha type (Homo sapiens, UniProt P17252)
[5] = target: T3, Non-receptor tyrosine-protein kinase TNK1 (Homo sapiens, UniProt Q13470)
T3 sequence (Q13470 whole entry): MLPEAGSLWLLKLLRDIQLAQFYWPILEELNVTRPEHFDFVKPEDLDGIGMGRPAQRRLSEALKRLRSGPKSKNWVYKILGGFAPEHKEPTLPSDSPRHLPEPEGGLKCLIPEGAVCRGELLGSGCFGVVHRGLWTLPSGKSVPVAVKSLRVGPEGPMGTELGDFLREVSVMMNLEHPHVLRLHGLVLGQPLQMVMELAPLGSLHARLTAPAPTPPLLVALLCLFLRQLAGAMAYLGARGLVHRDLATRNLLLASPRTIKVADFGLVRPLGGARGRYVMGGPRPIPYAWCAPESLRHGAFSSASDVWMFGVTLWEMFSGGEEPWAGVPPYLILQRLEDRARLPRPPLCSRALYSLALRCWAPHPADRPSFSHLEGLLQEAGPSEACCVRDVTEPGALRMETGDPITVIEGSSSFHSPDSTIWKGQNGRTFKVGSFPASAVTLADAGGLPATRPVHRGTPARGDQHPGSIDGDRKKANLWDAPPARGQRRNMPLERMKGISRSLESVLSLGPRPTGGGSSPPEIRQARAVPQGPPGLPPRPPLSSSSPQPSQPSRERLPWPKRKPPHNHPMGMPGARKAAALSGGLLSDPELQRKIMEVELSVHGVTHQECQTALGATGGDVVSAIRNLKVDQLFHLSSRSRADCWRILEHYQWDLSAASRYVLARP
Also: in the data inactive means no Kd found up to 30 µM.

| Kd [1] | Kd [2] | Kd [3] | Kd [4] | Kd [5] | Structure (SMILES) |
| --- | --- | --- | --- | --- | --- |
| > 30 µM (inactive) | 1.95 µM (active) | 0.006 µM (active) | 0.873 µM (active) | > 30 µM (inactive) | Cc1nc(Nc2n[nH]c3c2CN(C(=O)N[C@H](CN(C)C)c2ccccc2)C3(C)C)c2sccc2n1 [PF-03758309] |
| > 30 µM (inactive) | > 30 µM (inactive) | > 30 µM (inactive) | > 30 µM (inactive) | > 30 µM (inactive) | Cc1cnc(NC(=O)Nc2cc(Br)c(C)cc2OC[C@@H]2CNCCO2)cn1 [RABUSERTIB] |
| > 30 µM (inactive) | > 30 µM (inactive) | > 30 µM (inactive) | > 30 µM (inactive) | > 30 µM (inactive) | CO[C@H]1C[C@@H]2CC[C@@H](C)[C@@](O)(O2)C(=O)C(=O)N2CCCC[C@H]2C(=O)O[C@H]([C@H](C)C[C@@H]2CC[C@@H](OP(C)(C)=O)[C@H](OC)C2)CC(=O)[C@H](C)/C=C(\C)[C@@H](O)[C@@H](OC)C(=O)[C@H](C)C[C@H](C)/C=C/C=C/C=C/1C [RIDAFOROLIMUS] |
| > 30 µM (inactive) | > 30 µM (inactive) | > 30 µM (inactive) | > 30 µM (inactive) | > 30 µM (inactive) | N#CC1(c2ccc(NC(=O)c3cccnc3NCc3ccncc3)cc2)CCCC1 [RIVOCERANIB] |
| > 30 µM (inactive) | > 30 µM (inactive) | > 30 µM (inactive) | > 30 µM (inactive) | > 30 µM (inactive) | O=c1[nH]ccc2cc(OC3CCNCC3)ccc12 [SAR-407899 FREE BASE] |
| > 30 µM (inactive) | > 30 µM (inactive) | > 30 µM (inactive) | > 30 µM (inactive) | > 30 µM (inactive) | Cn1cc(-c2cnn3c(N)c(Br)c([C@@H]4CCCNC4)nc23)cn1 [SCH-900776] |
| > 30 µM (inactive) | > 30 µM (inactive) | > 30 µM (inactive) | > 30 µM (inactive) | > 30 µM (inactive) | CO[C@H]1C[C@@H]2CC[C@@H](C)[C@@](O)(O2)C(=O)C(=O)N2CCCC[C@H]2C(=O)O[C@H]([C@H](C)C[C@@H]2CC[C@@H](O)[C@H](OC)C2)CC(=O)[C@H](C)/C=C(\C)[C@@H](O)[C@@H](OC)C(=O)[C@H](C)C[C@H](C)/C=C/C=C/C=C/1C [SIROLIMUS] |
| > 30 µM (inactive) | > 30 µM (inactive) | > 30 µM (inactive) | > 30 µM (inactive) | > 30 µM (inactive) | CO[C@H]1C[C@@H]2CC[C@@H](C)[C@@](O)(O2)C(=O)C(=O)N2CCCC[C@H]2C(=O)O[C@H]([C@H](C)C[C@@H]2CC[C@@H](OC(=O)C(C)(CO)CO)[C@H](OC)C2)CC(=O)[C@H](C)/C=C(\C)[C@@H](O)[C@@H](OC)C(=O)[C@H](C)C[C@H](C)/C=C/C=C/C=C/1C [TEMSIROLIMUS] |
| 0.037 µM (active) | 0.615 µM (active) | > 30 µM (inactive) | > 30 µM (inactive) | > 30 µM (inactive) | COc1cc2c(Nc3ccc(Cl)c(Cl)c3F)ncnc2cc1OC[C@@H]1C[C@@H]2CN(C)C[C@@H]2C1 [TESEVATINIB] |
| > 30 µM (inactive) | > 30 µM (inactive) | > 30 µM (inactive) | > 30 µM (inactive) | > 30 µM (inactive) | O=C(Cc1ccc(-c2ccc(OCCN3CCOCC3)cc2)cn1)NCc1ccccc1 [TIRBANIBULIN] |
| > 30 µM (inactive) | > 30 µM (inactive) | > 30 µM (inactive) | > 30 µM (inactive) | > 30 µM (inactive) | O=C1NC(=O)[C@@H](c2cn3c4c(cccc24)CCC3)[C@@H]1c1c[nH]c2ccccc12 [TIVANTINIB] |
| 9.43 µM (active) | > 30 µM (inactive) | > 30 µM (inactive) | > 30 µM (inactive) | > 30 µM (inactive) | C[C@@H](NC(=O)c1ncnc(N)c1Cl)c1ncc(C(=O)Nc2cc(C(F)(F)F)c(Cl)cn2)s1 [TOVORAFENIB] |
| > 30 µM (inactive) | > 30 µM (inactive) | > 30 µM (inactive) | 1.67 µM (active) | > 30 µM (inactive) | Cn1ncc(Cl)c1-c1cc(C(=O)N[C@H](CN)Cc2ccc(F)c(F)c2)oc1Cl [UPROSERTIB] |
| 0.292 µM (active) | > 30 µM (inactive) | 0.38 µM (active) | 2.28 µM (active) | 0.003 µM (active) | CC(C)c1cc(CNc2nc(Nc3cc(C4CC4)[nH]n3)cc(N3CCN(C)CC3)n2)on1 [XL-228] |
| > 30 µM (inactive) | > 30 µM (inactive) | > 30 µM (inactive) | 3.28 µM (active) | > 30 µM (inactive) | C[C@@H](N)c1ccc(C(=O)Nc2ccnc3[nH]ccc23)cc1 [Y-39983] |

| Structure (SMILES) | Kd [1] | Kd [2] | Kd [3] | Kd [4] | Kd [5] |
| --- | --- | --- | --- | --- | --- |
| CCOc1cc2ncc(C#N)c(Nc3ccc(F)c(Cl)c3)c2cc1NC(=O)/C=C/CN(C)C [PELITINIB] | > 30 µM (inactive) | 0.117 µM (active) | > 30 µM (inactive) | > 30 µM (inactive) | > 30 µM (inactive) |
| CCCCCCCCCCCCCCCCCCOP(=O)([O-])OC1CC[N+](C)(C)CC1 [PERIFOSINE] | > 30 µM (inactive) | > 30 µM (inactive) | > 30 µM (inactive) | > 30 µM (inactive) | > 30 µM (inactive) |
| CNC(=O)c1cc(Oc2ccc(NC(=O)Nc3cc(C(C)(C)C)nn3-c3ccc4ncccc4c3)c(F)c2)ccn1 [REBASTINIB] | > 30 µM (inactive) | > 30 µM (inactive) | > 30 µM (inactive) | > 30 µM (inactive) | 0.055 µM (active) |
| Cc1cc(Nc2ncnc3ccc(NC4=NC(C)(C)CO4)cc23)ccc1Oc1ccn2ncnc2c1 [TUCATINIB] | > 30 µM (inactive) | > 30 µM (inactive) | > 30 µM (inactive) | > 30 µM (inactive) | > 30 µM (inactive) |
